Measurements taken from PMC5608352, “Formyl peptide derived lipopeptides disclose differences between the receptors in mouse and men and call the pepducin concept in question” (PLoS ONE, 2017).
“Also recorded” adds a separate entry of the source.

Experiments:
Format in all cases: cell-based
[1] = target: T1, Fpr2 (Mus musculus, UniProt O88536); test: Inhibition of F2Pal16-induced superoxide release, WT mouse neutrophils; details: Boc2 2 μM or peptidomimetic inhibitor 1 μM (five experiments), or mF2Pal16 500 nM against F2Pal16 500 nM (three experiments); 5 min pre-incubation
T1 construct: WT mouse neutrophils (5 x 10^4 cells) were pre-incubated without (solid line) or with mF2Pal16; endogenous in cells; host or cells: bone marrow neutrophils of C57BL/6 wild-type mice, TNF-alpha primed
T1 sequence (O88536 1-351): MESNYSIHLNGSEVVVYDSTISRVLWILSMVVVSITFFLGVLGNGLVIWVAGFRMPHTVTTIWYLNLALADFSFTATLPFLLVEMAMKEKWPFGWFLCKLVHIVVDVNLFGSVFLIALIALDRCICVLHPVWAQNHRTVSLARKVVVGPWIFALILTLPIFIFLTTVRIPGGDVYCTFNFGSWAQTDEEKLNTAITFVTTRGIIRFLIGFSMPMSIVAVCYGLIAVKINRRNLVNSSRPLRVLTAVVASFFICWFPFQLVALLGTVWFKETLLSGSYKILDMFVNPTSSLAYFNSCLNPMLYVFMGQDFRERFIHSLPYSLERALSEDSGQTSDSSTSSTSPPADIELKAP
Description: Mice (8–12 weeks of age) were killed by cervical dislocation, the femurs and tibias were removed and freed of soft tissue attachments, and the extreme distal tip of each extremity was cut off. KRG without Ca^2+ and Mg^2+ (KRG-) was forced through the bone by using a 1-mL syringe with a 27-gauge needle. After dispersing cell clumps and removing the debris, the bone marrow granulocytes were isolated according to an earlier described procedure with some modifications. Briefly, a cell suspension in 2 mL of KRG- was laid on top of a three-layer Percoll gradient (1.095, 1.085, and 1.070 g/mL). The density of each Percoll solution was verified using density marker beads. After centrifugation at 500 × g for 30 min at 4°C in a swinging bucket rotor, the lowest band (1.085/1.095 g/mL interface) was collected as the neutrophil fraction. After washing with KRG-, remaining red blood cells were eliminated by hypotonic lysis. After a final wash with KRG-, the cells were resuspended in KRG. The cell number and population of bone marrow cells were determined by flow cytometry based on forward scatter (size) and side scatter (density) localization.
NADPH-oxidase activity was determined using an isoluminol and HRP-enhanced chemiluminescence (CL) system that allow for the determination of superoxide production. The CL activity was measured in a six-channel Biolumat LB 9505 apparatus (Berthold Co., Wildbad, Germany), using disposable 4-mL polypropylene tubes with 1 mL reaction mixture. […] The light emission was recorded continuously over time and presented as superoxide production (in arbitrary light units, cpm x10^-6) as a function of time (min). The activity before stimulus addition was recorded as basal line and this activity was not changed in vehicle control samples. […]
Data analysis was performed using Graph Pad Prism 7.0. The EC50/IC50 values were determined from experiments in which the activities were normalized to the response induced by maximal response or induced by agonist in the absence of inhibitor. […]

[2] = system: Fpr2^-/- neutrophils; test: Inhibition of F2Pal16-induced superoxide release, Fpr2^-/- mouse neutrophils; details: Boc2 2 μM, 5 min pre-incubation; F2Pal16 500 nM
Description: (§1) C57BL/6 wild-type mice were purchased from Charles River Laboratories and Fpr2^−/− mice generated as described previously, were generously provided by Dr Ji Ming Wang, Frederick National Laboratory for Cancer Research, USA. Mice were kept under standard temperature and light conditions and fed laboratory chow and water ad libitum, at the Department of Rheumatology and Inflammation Research, University of Gothenburg. Sex matched WT and Fpr2^-/- animals (age 8–10 weeks) were used to isolated bone marrow derived neutrophils. The studies performed were approved by the Ethical Committee for Animal Experimentation, Göteborg, Sweden.
(§2) Mice (8–12 weeks of age) were killed by cervical dislocation, the femurs and tibias were removed and freed of soft tissue attachments, and the extreme distal tip of each extremity was cut off. […] The cell number and population of bone marrow cells were determined by flow cytometry based on forward scatter (size) and side scatter (density) localization.
(§3) NADPH-oxidase activity was determined using an isoluminol and HRP-enhanced chemiluminescence (CL) system that allow for the determination of superoxide production. The CL activity was measured in a six-channel Biolumat LB 9505 apparatus (Berthold Co., Wildbad, Germany), using disposable 4-mL polypropylene tubes with 1 mL reaction mixture. […]

[3] = system: Fpr1; test: Inhibition of fMIFL-induced superoxide release, Fpr2^-/- mouse neutrophils; details: Boc2 2 μM, 5 min pre-incubation; fMIFL 10 nM
Description: as §1, §2, §3

Boc-FLFLF [Boc2, Fpr1 antagonist]
effect of inhibitor on F2Pal16 response, WT mouse neutrophils [1]: no effect on the pepducin response | effect of inhibitor on F2Pal16 response, Fpr2^-/- neutrophils [2]: insensitive to Boc2; also recorded: no effect on the pepducin response | effect of inhibitor on fMIFL response, Fpr2^-/- neutrophils [3]: completely abolished
